A word on the GI50: it is the concentration at which growth is held to half of that of the control.

The subject of one assay is HT-29. The following applies: cited from earlier work.
In assay [1] the test system is HeLa cells. The assay can be described thus: Apoptosis assay annexin-V-FITC/PI, HeLa. As to conditions: for induction of apoptosis: 24 or 48 h, annexin-V-FITC/PI. It counts as cell-based, human.
Assay [2] relates to A549. The following applies: cited from earlier work.
A further assay deals with HeLa. The following applies: cited from earlier work.
Another assay relates to Jurkat. As to conditions: cited from earlier work.
A further assay deals with RS4; 11. The following applies: cited from earlier work.
Assay [3] deals with HeLa cells. In words: Flow cytometric analysis of cell cycle distribution. The assay is classed as cell-based, human. The following applies: 24 h treatment, PI flow cytometry.
For assay [4], the system named is A549. The assay can be described thus: Apoptosis assay annexin-V-FITC/PI, A549. The assay is classed as cell-based, human. As to conditions: A549, 24 or 48 h.
Assay [5] has as its system HeLa cells. In words: Mitochondrial membrane potential. The following applies: 0.1–1.0 µM, 6-48 h, JC-1. The assay is classed as cell-based, human.
Assay [6] concerns HeLa cells. In words: Western blot analysis of cell cycle and apoptosis proteins. The assay is classed as cell-based, human.
For assay [7], the system named is HeLa cells. The assay can be described thus: ROS production. It counts as cell-based, human. As to conditions: 1 µM, starting at 12–24 h, H2-DCFDA.
The test system of assay [8] is panel of 7 human tumor cell lines (HeLa, A549, HT-29, MDA-MB-231, RS4; 11, Jurkat, and Kasumi-1). The assay can be described thus: MTT antiproliferative assay, panel of 7 human tumor cell lines. The assay is classed as cell-based. The following applies: read-out: GI50s.
The target in another assay is tubulin (Bos taurus, UniProt P81947+Q6B856). As to conditions: tubulin 1 µM, [3H]colchicine 5 µM; ref [4]; cited from earlier work.
tubulin, sequence (Q6B856 whole entry): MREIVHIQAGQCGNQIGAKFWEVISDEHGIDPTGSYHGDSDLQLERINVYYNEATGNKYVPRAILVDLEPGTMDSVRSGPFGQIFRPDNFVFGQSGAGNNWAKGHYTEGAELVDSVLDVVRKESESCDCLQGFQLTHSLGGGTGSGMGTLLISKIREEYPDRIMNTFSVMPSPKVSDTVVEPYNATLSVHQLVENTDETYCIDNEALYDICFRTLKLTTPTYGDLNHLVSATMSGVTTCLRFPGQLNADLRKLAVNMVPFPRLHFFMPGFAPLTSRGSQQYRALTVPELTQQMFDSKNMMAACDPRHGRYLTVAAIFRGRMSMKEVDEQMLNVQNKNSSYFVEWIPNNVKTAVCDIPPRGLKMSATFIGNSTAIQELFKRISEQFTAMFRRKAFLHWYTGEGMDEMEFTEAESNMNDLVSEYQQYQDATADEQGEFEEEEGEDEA
tubulin, sequence (P81947 whole entry): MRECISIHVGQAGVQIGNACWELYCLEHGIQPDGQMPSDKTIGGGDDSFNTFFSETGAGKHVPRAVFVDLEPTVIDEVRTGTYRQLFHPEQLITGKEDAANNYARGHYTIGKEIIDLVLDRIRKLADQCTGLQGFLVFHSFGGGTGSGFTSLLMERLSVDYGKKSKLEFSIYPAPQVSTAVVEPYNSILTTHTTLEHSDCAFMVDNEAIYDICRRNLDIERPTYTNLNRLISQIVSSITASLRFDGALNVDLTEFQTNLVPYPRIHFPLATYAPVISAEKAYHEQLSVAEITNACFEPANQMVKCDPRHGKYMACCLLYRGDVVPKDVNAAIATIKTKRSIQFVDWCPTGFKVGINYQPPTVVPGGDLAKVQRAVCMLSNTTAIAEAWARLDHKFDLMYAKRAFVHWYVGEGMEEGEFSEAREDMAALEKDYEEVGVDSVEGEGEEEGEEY
A further assay addresses bovine brain tubulin (Bos taurus, UniProt P81947+Q6B856). The following applies: read-out: Inhibition of tubulin assembly IC50 ± SD; tubulin at 10 µM; ref [4]; cited from earlier work.

Each structure is given as a SMILES string. Read-outs that look alike come from different tables or passages of the source. Where only a bound is given, the exact number is not on record here.

bovine brain tubulin, sequence (Q6B856 whole entry): as the sequence (Q6B856 whole entry) above
bovine brain tubulin, sequence (P81947 whole entry): as the sequence (P81947 whole entry) above

For the compound `COc1ccc(/C=C\c2cc(OC)c(OC)c(OC)c2)cc1O` [CA-4, combretastatin A-4], the GI50 was 3100 ± 100 nM in the assay on HT-29 (ref [8] and [20]); 180 ± 50 nM in the assay on A549 [2] (ref [8] and [20]); 4 ± 1 nM in the assay on HeLa (ref [8] and [20]); 5 ± 0.6 nM in the assay with Jurkat (ref [8] and [20]); 0.8 ± 0.2 nM in the assay on RS4; 11 (ref [8] and [20]). For the same compound, the apoptotic response result in the assay with HeLa cells [1] (0.1 µM) is “strong apoptotic response”.

Turning to `CCn1ccc2c3c(=O)cc(-c4cccc5ccccc45)[nH]c3ccc21` [Compound 21, 3-ethyl-7-(naphthalen-1-yl)-3H-pyrrolo[3,2-f]quinolin-9(6H)-one], the induction of apoptosis entry was “induced apoptosis in a time and concentration dependent manner” in the assay on HeLa cells [1]; “induced apoptosis in a time and concentration dependent manner” in the assay with A549 [4]. For the same compound, the “effect on cell cycle progression” value in the assay on HeLa cells [3] was “induced a G2/M arrest”.

`CCn1ccc2c3c(=O)cc(-c4ccc5c(c4)CCCC5)[nH]c3ccc21` [Compound 23, 3-ethyl-7-(1,2,3,4-tetrahydronaphthalen-6-yl)-3H-pyrrolo[3,2-f]quinolin-9(6H)-one]: the induction of apoptosis result in the assay with HeLa cells [1] is “induced apoptosis in a time and concentration dependent manner”; with A549 [4], “induced apoptosis in a time and concentration dependent manner”. Further, the “effect on cell cycle progression” value with HeLa cells [3] was “induced a G2/M arrest”.

Regarding `CCn1ccc2c3c(=O)cc(-c4ccc5c(c4)OCO5)[nH]c3ccc21` [Compound 24, 7-(benzo[d][1,3]dioxol-5-yl)-3-ethyl-3H-pyrrolo[3,2-f]quinolin-9(6H)-one], the induction of apoptosis entry was “induced apoptosis in a time and concentration dependent manner” in the assay on HeLa cells [1]; “induced apoptosis in a time and concentration dependent manner” in the assay on A549 [4]. Also, in the assay with HeLa cells [3], the “effect on cell cycle progression” value is listed as “induced a G2/M arrest”. For the same compound, the “mitochondrial transmembrane potential (Δψmt)” value in the assay on HeLa cells [5] is recorded as “time-dependent increase in the percentage of cells with low Δψmt”. The “expression of anti-apoptotic proteins Bcl-2 and Mcl-1” value in the assay on HeLa cells [6] (immunoblot, 50 nM) is reported as “reduced the expression”. In addition, the PARP cleavage result with HeLa cells [6] (western blot) is “concentration and time-dependent cleavage of poly (ADP-Ribose) polymerase (PARP)”. For the same compound, in the assay on HeLa cells [6] (western blot, 24 and 48 h), the “cyclin B1 expression” value is “increase in cyclin B1 expression”. Also, the “phosphatase cdc25c expression” value with HeLa cells [6] (western blot, 24 h) is listed as “reduction in the expression of phosphatase cdc25c”. In addition, the “phosphorylated cdc2 kinase” value in the assay on HeLa cells [6] (western blot, in particular after 48 h) was “decrease of the phosphorylated form of cdc2 kinase”. Also, the ROS production entry with HeLa cells [7] is reported as “induced significant production of ROS”.

With `O=C1C=C(c2ccccc2)Nc2cccc3ccn1c23` [Compound 30, (Z)-2-phenyl-[1,4]diazepino[3,2,1-hi]indol-4(1H)-one], the IC50 in assay [8] was over 10000 nM.

As to `CCn1ccc2c3c(=O)cc(-c4ccccc4)[nH]c3ccc21` [Compound 31, 3-ethyl-7-phenyl-3H-pyrrolo[3-2-f] quinolin-9-one], the GI50 in the assay on HT-29 (ref [4] and [8]) is 32 ± 1.2 nM; with A549 [2] (ref [4] and [8]), 32 ± 1.5 nM; in the assay with HeLa (ref [4] and [8]), 11 ± 8 nM; in the assay on Jurkat (ref [4] and [8]), 0.5 ± 0.2 nM; in the assay on RS4; 11 (ref [4] and [8]), 2 ± 0.3 nM. Besides, the “Inhibition of colchicine binding % Inhibition ± SD” value at tubulin was 73 ± 0.7%. Further, the IC50 on bovine brain tubulin is 570 ± 20 nM.

(Values after PMC5798451 (European journal of medicinal chemistry, 2017).)
